Test results from PMC3121873, “Insertion of an Esterase Gene into a Specific Locust Pathogen (Metarhizium acridum) Enables It to Infect Caterpillars” (PLoS Pathogens, 2011).

Molecular target: T1, MEST1 (Metarhizium robertsii, UniProt E9ETD4)
T1 construct: gene MAA_03283; full-length cDNA (395 aa, 42244 Da, no signal peptide) in pET28a, His6-tagged, 47 kDa band; E. coli Rosetta (DE3) crude extract, not purified
Test: spectrophotometric p-nitrophenol release
Assay type: biochemical
Settings: 50 mM potassium phosphate pH 8, 37 °C; crude E. coli extract versus empty-vector extract

T1 sequence (E9ETD4 entry or part of it): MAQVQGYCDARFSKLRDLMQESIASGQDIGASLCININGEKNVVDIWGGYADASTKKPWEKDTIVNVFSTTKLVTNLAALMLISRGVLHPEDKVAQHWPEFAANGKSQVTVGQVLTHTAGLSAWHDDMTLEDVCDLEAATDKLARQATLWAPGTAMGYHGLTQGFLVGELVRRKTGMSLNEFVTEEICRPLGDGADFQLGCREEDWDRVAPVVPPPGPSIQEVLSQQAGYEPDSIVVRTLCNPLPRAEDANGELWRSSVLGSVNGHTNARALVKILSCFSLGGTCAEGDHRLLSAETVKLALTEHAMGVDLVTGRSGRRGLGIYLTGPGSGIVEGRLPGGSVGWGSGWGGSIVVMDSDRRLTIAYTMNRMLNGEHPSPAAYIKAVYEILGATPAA

## CCCC(=O)Oc1ccc([N+](=O)[O-])cc1 [p-NP butyrate]
  spectrophotometric p-nitrophenol release: highest activity against p-NP propionate (C3), p-NP butyrate (C4) and p-NP caproate (C6)

## CCC(=O)Oc1ccc([N+](=O)[O-])cc1 [p-NP propionate]
  spectrophotometric p-nitrophenol release: highest activity against p-NP propionate (C3), p-NP butyrate (C4) and p-NP caproate (C6)
